Test results published in ChEMBL document CHEMBL5291721, “A preclinical secondary pharmacology resource illuminates target-adverse drug reaction associations of marketed drugs” (Nat Commun, 2023).

Columns and labels:
[1] = molecular target: T1, Oxysterols receptor LXR-beta (Homo sapiens, UniProt P55055); assay type: functional
T1 sequence (P55055 whole entry): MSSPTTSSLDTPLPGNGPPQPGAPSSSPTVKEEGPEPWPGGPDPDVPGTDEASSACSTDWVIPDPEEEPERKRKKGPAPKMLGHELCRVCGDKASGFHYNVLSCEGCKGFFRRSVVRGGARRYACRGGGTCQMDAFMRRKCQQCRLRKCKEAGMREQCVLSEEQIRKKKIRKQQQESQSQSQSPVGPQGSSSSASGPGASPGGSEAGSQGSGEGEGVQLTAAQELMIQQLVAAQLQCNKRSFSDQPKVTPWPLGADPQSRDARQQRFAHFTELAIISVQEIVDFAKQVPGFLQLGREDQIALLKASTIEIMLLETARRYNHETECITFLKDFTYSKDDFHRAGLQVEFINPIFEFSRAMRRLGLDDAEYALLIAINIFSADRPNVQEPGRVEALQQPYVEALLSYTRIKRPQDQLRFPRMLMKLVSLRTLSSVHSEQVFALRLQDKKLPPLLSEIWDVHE

[2] = molecular target: T2, Oxysterols receptor LXR-alpha (Homo sapiens, UniProt Q13133); assay type: functional
T2 sequence (Q13133 whole entry): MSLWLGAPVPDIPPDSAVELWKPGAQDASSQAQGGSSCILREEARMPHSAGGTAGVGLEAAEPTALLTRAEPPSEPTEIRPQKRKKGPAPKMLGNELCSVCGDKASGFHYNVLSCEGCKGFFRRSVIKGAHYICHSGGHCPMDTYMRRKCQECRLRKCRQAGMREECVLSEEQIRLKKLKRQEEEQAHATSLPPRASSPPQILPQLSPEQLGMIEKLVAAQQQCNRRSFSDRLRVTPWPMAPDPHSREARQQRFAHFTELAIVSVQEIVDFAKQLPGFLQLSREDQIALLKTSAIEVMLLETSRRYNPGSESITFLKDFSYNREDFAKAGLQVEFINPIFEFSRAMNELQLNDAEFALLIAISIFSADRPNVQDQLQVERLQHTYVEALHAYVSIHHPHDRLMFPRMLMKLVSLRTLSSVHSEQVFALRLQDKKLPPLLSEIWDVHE

[3] = molecular target: T2, Oxysterols receptor LXR-alpha; assay type: functional; remark: listed apart in the source
Bile acid receptor [4] = molecular target: T3, Bile acid receptor (Homo sapiens, UniProt Q96RI1); assay type: functional
T3 sequence (Q96RI1 whole entry): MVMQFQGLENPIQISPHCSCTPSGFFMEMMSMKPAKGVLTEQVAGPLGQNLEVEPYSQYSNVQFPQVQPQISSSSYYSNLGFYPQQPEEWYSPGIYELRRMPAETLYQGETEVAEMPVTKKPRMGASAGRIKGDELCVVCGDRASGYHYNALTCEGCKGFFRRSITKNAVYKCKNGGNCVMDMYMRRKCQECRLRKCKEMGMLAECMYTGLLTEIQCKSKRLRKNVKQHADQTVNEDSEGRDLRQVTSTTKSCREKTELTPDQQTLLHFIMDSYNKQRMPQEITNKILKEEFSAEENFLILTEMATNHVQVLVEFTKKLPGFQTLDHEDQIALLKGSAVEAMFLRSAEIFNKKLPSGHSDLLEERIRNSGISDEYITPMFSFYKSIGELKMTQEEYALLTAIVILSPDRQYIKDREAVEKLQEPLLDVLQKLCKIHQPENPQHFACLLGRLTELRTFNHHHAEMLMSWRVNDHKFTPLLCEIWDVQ

Bile acid receptor [5] = molecular target: T3, Bile acid receptor; assay type: functional; remark: listed apart in the source
[6] = molecular target: T4, Retinoic acid receptor beta (Homo sapiens, UniProt P10826); assay type: functional, cell-based
T4 sequence (P10826 whole entry): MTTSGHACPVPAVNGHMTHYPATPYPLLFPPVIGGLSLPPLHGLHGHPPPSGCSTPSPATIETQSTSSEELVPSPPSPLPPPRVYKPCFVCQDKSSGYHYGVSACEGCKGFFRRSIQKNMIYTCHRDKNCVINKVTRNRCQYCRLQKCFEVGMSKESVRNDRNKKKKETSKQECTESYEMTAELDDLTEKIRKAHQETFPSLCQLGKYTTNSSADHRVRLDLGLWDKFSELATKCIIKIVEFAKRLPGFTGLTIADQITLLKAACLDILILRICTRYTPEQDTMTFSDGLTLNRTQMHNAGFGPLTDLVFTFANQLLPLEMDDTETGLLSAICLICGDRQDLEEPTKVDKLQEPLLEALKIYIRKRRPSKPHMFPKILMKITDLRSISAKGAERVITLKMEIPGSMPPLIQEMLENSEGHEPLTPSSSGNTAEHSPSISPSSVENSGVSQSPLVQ

[7] = molecular target: T4, Retinoic acid receptor beta; assay type: functional, cell-based; remark: listed apart in the source
[8] = molecular target: T5, Retinoic acid receptor gamma (Homo sapiens, UniProt P13631); assay type: functional, cell-based
T5 sequence (P13631 whole entry): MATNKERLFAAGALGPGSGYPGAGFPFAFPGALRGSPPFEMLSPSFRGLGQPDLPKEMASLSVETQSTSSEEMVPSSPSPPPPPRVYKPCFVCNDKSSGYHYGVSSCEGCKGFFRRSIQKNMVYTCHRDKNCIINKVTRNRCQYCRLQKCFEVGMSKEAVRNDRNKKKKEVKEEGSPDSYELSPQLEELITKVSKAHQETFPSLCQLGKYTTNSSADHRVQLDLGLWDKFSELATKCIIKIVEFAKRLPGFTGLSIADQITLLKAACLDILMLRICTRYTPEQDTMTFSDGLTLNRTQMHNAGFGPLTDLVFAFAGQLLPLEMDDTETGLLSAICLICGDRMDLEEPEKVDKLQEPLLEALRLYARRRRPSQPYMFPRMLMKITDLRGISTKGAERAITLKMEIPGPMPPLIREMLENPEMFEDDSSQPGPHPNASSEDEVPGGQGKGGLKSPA

[9] = molecular target: T5, Retinoic acid receptor gamma; assay type: functional, cell-based; remark: listed apart in the source
[10] = molecular target: Hydroxycarboxylic acid receptor 2 (Homo sapiens, UniProt Q8TDS4)
Note: assay procedure not described here.

Sequence of Hydroxycarboxylic acid receptor 2 (Q8TDS4 whole entry): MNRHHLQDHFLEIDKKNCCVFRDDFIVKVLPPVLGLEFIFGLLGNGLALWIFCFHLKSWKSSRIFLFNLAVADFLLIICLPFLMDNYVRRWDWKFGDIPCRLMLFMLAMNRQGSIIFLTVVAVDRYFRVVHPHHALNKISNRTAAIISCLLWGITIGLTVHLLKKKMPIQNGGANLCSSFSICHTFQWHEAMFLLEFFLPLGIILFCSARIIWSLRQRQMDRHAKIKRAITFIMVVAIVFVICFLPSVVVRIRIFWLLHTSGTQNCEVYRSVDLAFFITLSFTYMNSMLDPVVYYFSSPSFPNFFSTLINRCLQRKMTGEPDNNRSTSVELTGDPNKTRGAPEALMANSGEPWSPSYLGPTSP

SMILES	AC50 [1] [µM]	AC50 [2] [µM]	AC50 [3] [µM]	AC50 (Bile acid receptor [4]) [µM]	AC50 (Bile acid receptor [5]) [µM]	AC50 [6] [µM]	AC50 [7] [µM]	AC50 [8] [µM]	AC50 [9] [µM]	AC50 [10] [µM]
Clc1cccc(Cl)c1N=C1NCCN1 [CLONIDINE]	–	–	–	–	–	–	–	–	–	> 10
COc1ccnc(C[S+]([O-])c2nc3ccc(OC(F)F)cc3[nH]2)c1OC (centres undefined) [PANTOPRAZOLE]	–	–	–	–	–	–	–	–	–	> 10
CNC(=O)c1cc(Oc2ccc(NC(=O)Nc3ccc(Cl)c(C(F)(F)F)c3)c(F)c2)ccn1 [REGORAFENIB]	> 30	> 30	> 30	> 30	> 30	> 30	> 30	> 30	9	–
CC(=O)S[C@@H]1CC2=CC(=O)CC[C@]2(C)[C@H]2CC[C@@]3(C)[C@@H](CC[C@@]34CCC(=O)O4)[C@H]12 [SPIRONOLACTONE]	–	–	–	–	–	–	–	–	–	> 10

The next lines start with the values.

AC50 [1] [µM]	AC50 [2] [µM]	AC50 [3] [µM]	AC50 (Bile acid receptor [4]) [µM]	AC50 (Bile acid receptor [5]) [µM]	AC50 [6] [µM]	AC50 [7] [µM]	AC50 [8] [µM]	AC50 [9] [µM]	AC50 [10] [µM]	SMILES
> 30	> 30	> 30	> 30	> 30	> 30	> 30	> 30	> 30	–	CC(/C=C1\SC(=S)N(CC(=O)O)C1=O)=C\c1ccccc1
> 30	> 30	19	> 30	> 30	> 30	18	> 30	9.1	–	CC1(C)S[C@@H]2[C@H](NC(=O)[C@H](N)c3ccc(O)cc3)C(=O)N2[C@H]1C(=O)O [AMOXICILLIN]
> 30	> 30	> 30	> 30	> 30	> 30	> 30	> 30	> 30	–	CCOc1cc(CC(=O)N[C@@H](CC(C)C)c2ccccc2N2CCCCC2)ccc1C(=O)O [REPAGLINIDE]
